Measurements reported in patent US20100267743A1, “3-(PHENOXYPYRROLIDIN-3-YL-METHYL)HETEROARYL, 3-(PHENYLPYRROLIDIN-3-YLMETHOXY)HETEROARYL, AND 3-(HETEROARYLPYRROLIDIN-3-YLMETHOXY)HETEROARYL COMPOUNDS” (priority 2009, published 2010).
Marks after values point to notes of the source that are not given here.

How the values were obtained:
[1] = target: SERT (Homo sapiens, UniProt P31645); experiment: hSERT radioligand binding assay (3H-citalopram); set-up: expressed in transfected cells; host or cells: HEK-293; settings: hSERT membranes (HEK-293), 1.0 nM 3H-citalopram; for Ki: read-out: SERT pKi (converted)
Outline: (§1)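 Membranes came from HEK-293 cells stably expressing hSERT (0.5 μg protein) or hNET (1 μg), with 3H-citalopram or 3H-nisoxetine respectively. Incubation was 60 min at 22° C in Tris buffer with 120 mM NaCl and 5 mM KCl, pH 7.4, followed by filtration and scintillation counting. pKi was derived by Cheng-Prusoff from IC50 and saturation-derived Kd.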

[2] = target: NET (Homo sapiens, UniProt P23975); experiment: hNET radioligand binding assay (3H-nisoxetine); set-up: expressed in transfected cells; host or cells: HEK-293; settings: hNET membranes (HEK-293), 1.0 nM 3H-nisoxetine; for Ki: read-out: NET pKi (converted)
Outline: as §1

Chain of SERT (P31645 whole entry): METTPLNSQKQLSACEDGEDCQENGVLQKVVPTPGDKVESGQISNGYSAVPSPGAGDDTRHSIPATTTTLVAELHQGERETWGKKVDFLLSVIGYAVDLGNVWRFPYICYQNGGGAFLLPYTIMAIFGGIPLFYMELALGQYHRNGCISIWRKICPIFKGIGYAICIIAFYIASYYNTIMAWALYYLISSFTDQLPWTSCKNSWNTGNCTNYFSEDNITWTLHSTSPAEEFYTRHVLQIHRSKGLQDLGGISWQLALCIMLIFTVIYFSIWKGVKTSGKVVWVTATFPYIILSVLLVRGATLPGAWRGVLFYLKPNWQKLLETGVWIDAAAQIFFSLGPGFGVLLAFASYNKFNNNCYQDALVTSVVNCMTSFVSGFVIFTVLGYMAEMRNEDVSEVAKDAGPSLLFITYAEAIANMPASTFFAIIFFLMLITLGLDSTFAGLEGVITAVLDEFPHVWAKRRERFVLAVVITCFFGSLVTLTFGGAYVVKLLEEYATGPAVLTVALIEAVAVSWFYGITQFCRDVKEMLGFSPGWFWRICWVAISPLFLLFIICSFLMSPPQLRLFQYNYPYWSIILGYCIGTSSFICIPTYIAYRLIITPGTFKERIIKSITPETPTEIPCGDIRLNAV
Chain of NET (P23975 whole entry): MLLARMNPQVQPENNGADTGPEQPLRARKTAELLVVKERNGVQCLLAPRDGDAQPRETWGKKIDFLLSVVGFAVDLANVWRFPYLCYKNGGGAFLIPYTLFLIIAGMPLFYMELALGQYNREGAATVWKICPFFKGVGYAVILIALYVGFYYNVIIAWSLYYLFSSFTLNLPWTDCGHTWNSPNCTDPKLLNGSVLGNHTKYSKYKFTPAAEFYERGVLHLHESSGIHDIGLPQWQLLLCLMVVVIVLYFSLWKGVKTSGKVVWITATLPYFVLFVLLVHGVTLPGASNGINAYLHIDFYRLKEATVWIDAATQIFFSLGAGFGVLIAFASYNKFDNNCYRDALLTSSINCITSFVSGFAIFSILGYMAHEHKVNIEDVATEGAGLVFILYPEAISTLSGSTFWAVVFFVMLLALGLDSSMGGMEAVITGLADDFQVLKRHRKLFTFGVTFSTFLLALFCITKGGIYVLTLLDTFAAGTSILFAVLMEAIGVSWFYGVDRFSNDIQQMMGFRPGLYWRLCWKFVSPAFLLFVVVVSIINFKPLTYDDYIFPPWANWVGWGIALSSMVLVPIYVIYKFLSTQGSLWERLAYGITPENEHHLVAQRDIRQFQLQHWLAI

Compound | SERT pKi [1] | NET pKi [2] | Ki [1] | Ki [2]
Cc1c(F)c(F)nc(O[C@@H](c2ccccc2)[C@H]2CCNC2)c1F.O=C(O)C(F)(F)F [14-4] | ≧7.0 | ≧5.0 | – | –
Clc1cc(Cl)cc(OC(c2nccs2)C2CCNC2)c1 [Example 5-26, 2-[(R)-(3,5-Dichlorophenoxy)-((S)-pyrrolidin-3-yl-methyl]thiazole] | – | – | ≤ 100 nM | ≤ 100 nM
CC(C)c1ccccc1O[C@@H](c1ncco1)[C@H]1CCNC1.O=C(O)C(F)(F)F [6-32] | ≧5.0 | ≧7.0 | – | –
Cc1ccc(OC(c2ccccc2)C2CCNC2)cn1 (stereo not shown) [15-28] | ≧7.0 | ≧5.0 | – | –
Clc1cc(Cl)cc(O[C@H](c2ncco2)[C@H]2CCNC2)c1 [6-44] | – | – | ≤ 100 nM | ≤ 100 nM
Fc1ccc(F)c(O[C@@H](c2ccco2)[C@H]2CCNC2)c1Cl [Example 8-1, (S)-3-[(R)-(2-Chloro-3,6-difluorophenoxy)furan-2-yl-methyl]pyrrolidine] | – | – | ≤ 10000 nM | ≤ 10000 nM
Fc1ccc(O[C@H](c2nccs2)[C@H]2CCNC2)c(Cl)c1 [Example 5-19, 2-[(S)-(2-Chloro-4-fluorophenoxy)-(S)-pyrrolidin-3-ylmethyl]thiazole] | – | – | ≤ 100 nM | ≤ 10000 nM
O=C(O)C(F)(F)F.c1ccc([C@H](Oc2ccccn2)[C@H]2CCNC2)cc1 [14-41] | ≧7.0 | ≧7.0 | – | –
Fc1ccc(F)c(O[C@@H](c2nccs2)[C@H]2CCNC2)c1Cl [Example 5-15] | ≧7.0 | ≧5.0 | – | –
Cc1ncccc1O[C@@H](c1ccccc1)[C@H]1CCNC1.O=C(O)C(F)(F)F [15-9] | ≧5.0 | ≧5.0 | – | –
COc1ccccc1O[C@@H](c1cnccn1)[C@H]1CCNC1.O=C(O)C(F)(F)F [10-7] | ≧5.0 | ≧7.0 | – | –
Brc1cnc(O[C@@H](c2ccccc2)[C@H]2CCNC2)c(Br)c1.O=C(O)C(F)(F)F [14-13] | ≧7.0 | ≧7.0 | – | –
Fc1cc(F)c(O[C@H](c2cccnc2)[C@H]2CCNC2)c(F)c1 [Example 2-69, 3-[(S)-(S)-Pyrrolidin-3-yl-(2,4,6-trifluorophenoxy)methyl]pyridine] | – | – | ≤ 100 nM | ≤ 100 nM
Clc1cnc(OC(c2ccccc2)C2CCNC2)c(Cl)c1 (stereo not shown) [14-14] | ≧7.0 | ≧7.0 | – | –
Cc1c(O[C@@H](c2ccccc2)[C@H]2CCNC2)ccnc1Cl.O=C(O)C(F)(F)F [16-1] | ≧7.0 | ≧5.0 | – | –
Fc1ccc(O[C@H](c2ccccc2)[C@@H]2CCNC2)cn1.O=C(O)C(F)(F)F [15-26] | ≧7.0 | ≧5.0 | – | –
CCc1cc(F)cc(F)c1O[C@@H](c1ncco1)[C@H]1CCNC1 [6-53] | ≧7.0 | ≧7.0 | – | –
FC(F)(F)c1ccc(O[C@@H](c2ccccc2)[C@H]2CCNC2)nc1.O=C(O)C(F)(F)F [14-23] | ≧7.0 | ≧5.0 | – | –
Cc1ccccc1C(Oc1cccc2ccccc12)C1CCNC1 (stereo not shown) [21-3] | – | – | ≤ 100 nM | ≤ 100 nM

Compound | SERT pKi [1] | NET pKi [2] | Ki [1] | Ki [2]
Fc1cc(F)c(F)c(O[C@@H](c2nccs2)[C@H]2CCNC2)c1F [Example 5-3] | ≧5.0 | ≧5.0 | – | –
Clc1cc(Cl)cc(O[C@H](c2nccs2)[C@H]2CCNC2)c1 [Example 5-27] | ≧7.0 | ≧7.0 | – | –
Cc1c(Cl)cccc1O[C@@H](c1ncco1)[C@H]1CCNC1.O=C(O)C(F)(F)F [6-50] | ≧7.0 | ≧7.0 | – | –
Cc1cccc(Cl)c1O[C@@H](c1ncco1)[C@H]1CCNC1 [6-26] | ≧7.0 | ≧7.0 | – | –
Clc1cc(Cl)cc(O[C@@H](c2cncnc2)[C@H]2CCNC2)c1.O=C(O)C(F)(F)F [12-5] | ≧7.0 | ≧5.0 | – | –
CC(=O)c1c(O[C@@H](c2ncco2)[C@H]2CCNC2)ccc(Cl)c1Cl.O=C(O)C(F)(F)F [6-27] | ≧7.0 | ~5.0* | – | –
Fc1cc(F)c(Cl)c(O[C@H](c2cnccn2)[C@H]2CCNC2)c1Cl [10-2] | – | – | ≤ 10000 nM | ≤ 10000 nM
Cc1ccc(O[C@@H](c2ncco2)[C@H]2CCNC2)cc1 [6-48] | – | – | ≤ 100 nM | ≤ 100 nM
Cc1cc(Cl)cc(C)c1O[C@H](c1cncc(Cl)c1)[C@@H]1CCNC1 [Example 2-29, 3-Chloro-5-[(R)-(4-chloro-2,6-dimethylphenoxy)-(S)-pyrrolidin-3-yl-methy1]-pyridine] | ≧7.0 | ≧5.0 | – | –
Fc1ccc(F)c(O[C@H](c2ncco2)[C@H]2CCNC2)c1Cl [6-21] | – | – | ≤ 10000 nM | ≤ 10000 nM
Fc1cccc(O[C@@H](c2ccccc2)[C@H]2CCNC2)n1.O=C(O)C(F)(F)F [14-10] | ≧5.0 | ≧7.0 | – | –
Fc1cnc(O[C@@H](c2ccccc2)[C@H]2CCNC2)c(F)c1C(F)(F)F.O=C(O)C(F)(F)F [14-18] | ≧7.0 | ≧7.0 | – | –
Fc1ccc(OC(c2nccs2)C2CCNC2)c(F)c1F [Example 5-2, 2-[((S)-((S)-Pyrrolidin-3-yl-(2,3,4-trifluorophenoxy)methyl]thiazole] | ≧7.0 | – | – | ≤ 100 nM
Clc1cccc(O[C@@H](c2ncco2)[C@H]2CCNC2)c1Cl.O=C(O)C(F)(F)F [6-49] | ≧7.0 | ≧7.0 | – | –
COc1ccccc1O[C@H](c1cncc(F)c1)[C@H]1CCNC1 [Example 2-63, 3-Fluoro-5-[(S)-(2-methoxyphenoxy)-(S)-pyrrolidin-3-yl-methyl]pyridine] | – | – | ≤ 10000 nM | ≤ 10000 nM
Fc1ccc(O[C@@H](c2ccccc2)C2CCNC2)cn1 (stereo partly shown) [15-25] | – | – | ≤ 100 nM | ≤ 10000 nM
Fc1ccc(OC(c2nccs2)C2CCNC2)c(F)c1F [Example 5-1, 2-[(R)-((S)-Pyrrolidin-3-yl-(2,3,4-trifluorophenoxy)methyl]thiazole] | – | – | ≤ 100 nM | ≤ 10000 nM
CCCOc1ncccc1O[C@@H](c1ccccc1)[C@H]1CCNC1.O=C(O)C(F)(F)F [15-19] | ≧7.0 | ≧7.0 | – | –
Fc1cc(F)c(Cl)c(OC(c2nccs2)C2CCNC2)c1Cl [Example 5-9, 2-[((S)-(2,6-Dichloro-3,5-difluorophenoxy)-((S)-pyrrolidin-3-yl-methyl]thiazole] | – | – | ≤ 100 nM | ≤ 100 nM

Compound | SERT pKi [1] | NET pKi [2] | Ki [1] | Ki [2]
Fc1ccc(F)c(O[C@H](c2cncc(Cl)c2)[C@H]2CCNC2)c1Cl [Example 2-7, 3-Chloro-5-[(S)-(2-chloro-3,6-difluorophenoxy)-(S)-pyrrolidin-3-yl-methyl]-pyridine] | – | – | ≤ 100 nM | ≤ 10000 nM
Fc1cccnc1O[C@H](c1ccccc1)[C@@H]1CCNC1.O=C(O)C(F)(F)F [14-35] | ≧5.0 | ≧7.0 | – | –
Fc1cc(Cl)cnc1O[C@@H](c1ccccc1)[C@H]1CCNC1.O=C(O)C(F)(F)F [14-28] | ≧7.0 | ≧5.0 | – | –
Cc1cc(Cl)cc(C)c1O[C@@H](c1ncco1)[C@H]1CCNC1.O=C(O)C(F)(F)F [6-15] | ≧7.0 | ≧5.0 | – | –
Clc1cccc(Cl)c1O[C@H](c1ccncc1)[C@H]1CCNC1 [Example 3-5, 4-[(S)-(2,6-Dichlorophenoxy)-(S)-pyrrolidin-3-yl-methyl]pyridine] | – | – | ≤ 100 nM | ≤ 100 nM
Cc1ccc(Cl)c(OC(c2cccnc2)[C@H]2CCNC2)c1Cl (stereo partly drawn) [Example 2-74, 3-[(S)-(2,6-Dichloro-3-methylphenoxy)-pyrrolidin-3-yl-methyl]pyridine] | – | – | ≤ 100 nM | ≤ 100 nM
Cc1ccc(F)c(O[C@H](c2nccs2)[C@H]2CCNC2)c1Cl [Example 5-23] | ≧7.0 | ≧7.0 | – | –
Fc1cncc([C@H](Oc2c(F)cc(F)cc2F)[C@H]2CCNC2)c1 [Example 2-35, 3-Fluoro-5-[(R)-(S)-pyrrolidin-3-yl-(2,4,6-trifluorophenoxy)-methyl]pyridine] | – | – | ≤ 100 nM | ≤ 100 nM
Fc1ccc(O[C@@H](c2ccccc2)[C@H]2CCNC2)cn1.O=C(O)C(F)(F)F [15-27] | ≧7.0 | ≧5.0 | – | –
Fc1ccc(O[C@@H](c2ncco2)[C@H]2CCNC2)c(Cl)c1.O=C(O)C(F)(F)F [6-22] | ≧5.0 | ≧7.0 | – | –
Clc1cccc(O[C@@H](c2ccccc2)[C@H]2CCNC2)n1.O=C(O)C(F)(F)F [14-9] | ≧7.0 | ≧7.0 | – | –
Cc1ccc(F)c(O[C@H](c2nccs2)C2CCNC2)c1Cl (stereo partly shown) [Example 5-17] | ≧7.0 | ≧7.0 | – | –
Clc1cccc(C(Oc2cccc3ccccc23)C2CCNC2)c1 (stereo not shown) [21-5] | – | – | ≤ 100 nM | ≤ 100 nM
Fc1ccc(OC(c2nccs2)[C@H]2CCNC2)c(Cl)c1 (stereo partly drawn) [Example 5-20, 2-[(S)-(2-Chloro-4-fluorophenoxy)-pyrrolidin-3-yl-methyl]thiazole] | – | – | ≤ 100 nM | ≤ 100 nM
Fc1cc(F)c(Cl)c(O[C@@H](c2ncco2)[C@H]2CCNC2)c1Cl.O=C(O)C(F)(F)F [6-9] | ≧5.0 | ≧7.0 | – | –
Fc1cc(F)c(Cl)c(O[C@H](c2ncco2)[C@H]2CCNC2)c1Cl [6-10] | – | – | ≤ 100 nM | ≤ 10000 nM
COc1cccnc1O[C@@H](c1ccccc1)[C@H]1CCNC1.O=C(O)C(F)(F)F [14-39] | ≧7.0 | ≧5.0 | – | –
Fc1cncc(C(Oc2ccc(Cl)cc2Cc2ccccc2)C2CCNC2)c1 [Example 2-47, 3-[(R)-(2-Benzy1-4-chlorophenoxy)-(S)-pyrrolidin-3-yl-methy1]-5-fluoropyridine] | – | – | ≤ 100 nM | ≤ 100 nM
